In publication PMC5310970 (Journal of photochemistry and photobiology. B, Biology, 2016) one finds Ki data, which are given here for one substance.

The target in this assay is Prostate-specific membrane antigen (PSMA) (Homo sapiens, UniProt Q04609). Kind of assay: fluorescence-based NAALADase inhibition assay. Type of assay: biochemical.

The term Ki denotes the equilibrium dissociation constant of an inhibitor or competing ligand from its target. A low value points to a stronger hold on the target.

Sequence of Prostate-specific membrane antigen (PSMA) (Q04609 whole entry): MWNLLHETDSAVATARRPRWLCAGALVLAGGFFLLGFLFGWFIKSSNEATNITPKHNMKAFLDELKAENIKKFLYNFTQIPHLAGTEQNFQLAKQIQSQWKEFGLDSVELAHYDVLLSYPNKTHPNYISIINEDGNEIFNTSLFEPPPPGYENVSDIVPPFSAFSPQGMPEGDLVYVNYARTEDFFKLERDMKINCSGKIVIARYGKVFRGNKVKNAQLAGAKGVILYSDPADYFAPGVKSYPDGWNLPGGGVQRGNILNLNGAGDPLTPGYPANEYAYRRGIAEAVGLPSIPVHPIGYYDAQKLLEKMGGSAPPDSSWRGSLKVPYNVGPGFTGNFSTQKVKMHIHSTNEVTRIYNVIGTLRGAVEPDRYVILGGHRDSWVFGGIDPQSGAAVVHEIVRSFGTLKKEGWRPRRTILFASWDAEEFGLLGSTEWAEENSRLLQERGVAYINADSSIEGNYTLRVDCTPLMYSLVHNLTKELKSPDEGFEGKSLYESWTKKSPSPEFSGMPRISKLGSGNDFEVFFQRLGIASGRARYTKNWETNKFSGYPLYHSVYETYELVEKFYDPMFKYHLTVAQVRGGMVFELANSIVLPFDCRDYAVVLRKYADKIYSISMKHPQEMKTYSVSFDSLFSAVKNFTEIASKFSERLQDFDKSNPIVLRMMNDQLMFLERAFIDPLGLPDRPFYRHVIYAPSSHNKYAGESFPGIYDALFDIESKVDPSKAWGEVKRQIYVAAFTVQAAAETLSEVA

For YC-9, affinity was put at a Ki of 0.2 nM. This lies in the sub-nanomolar range.
